One series has as its system porcine buccal mucosa. Briefly: Transepithelial transport of [3H]water across porcine buccal mucosa in vitro, continuous flow apparatus. It is filed as in vitro ADME. How it is done: (§1) Porcine buccal and nasal mucosa (lateral) was obtained at slaughter and utilized within 3 hours of harvest. Tissue samples approximately 8 mm in diameter were mounted between two halves of through-flow mucosal perfusion cells exposing an area of epithelial surface approximately 0.20 cm^2 for transepithelial transport. The chambers were mounted on water-jacketed blocks maintained at 37° C. During the set up period, the exposed epithelial surface was kept moist with phosphate buffered saline (PBS, 0.01M, pH 7.4). The buffer solution was removed by vacuum immediately prior to application of labeled test compound. […] In the receiver compartment, PBS was continuously pumped through the lower chamber (i.e., blood compartment) as a collection fluid at rate of 1.8 mL/hr, which was previously determined to be sufficient to maintain sink conditions in the receiver compartment. This fluid was collected into scintillation vials for 1 or 2 hour intervals over the entire collection period and radioactivity was determined by liquid scintillation counter. Transepithelial flux of the marker solute in the presence of various concentrations of permeation enhancers was calculated at each sampling interval from the relationship: Flux=Q/At where Q is the finite quantity of solute traversing the tissue barrier (dpm) in time t (min); A is the area of epithelial surface exposed in cm^2. […]

In the next series the test system is porcine nasal mucosa. The series can be described thus: Transepithelial transport of [3H]water across porcine nasal mucosa in vitro, continuous flow apparatus. It is filed as in vitro ADME. The procedure: as §1
For a further series, the system named is healthy female rabbits. As to conditions: rabbit, in vivo. The procedure:
A 10 day, repeat dose, vaginal toxicity study was conducted in healthy female rabbits. Three doses and two controls were used. […] Doses of SUPPOCIRE® and SUPPOCIRE® plus ethoxydiglycol were used as controls. The study findings are summarized below.

The conditions of series [1]: essentially the same amount as i.v.; cited from earlier work.

Regarding `CCOCCOCCO` [TRANSCUTOL®, diethyleneglycol monoethyl ether], the “increase of mean steady state Kp as compared to control” value in the series with porcine buccal mucosa (30% (v/v) TRANSCUTOL versus control) is listed as roughly 25%. Moreover, the “mean steady state Kp of [3H]water” value in the series with porcine buccal mucosa (in the presence of 30% (v/v) TRANSCUTOL, n=7) is listed as 1.11±0.01×10^−3 cm/min; in the series with porcine nasal mucosa (in the presence of 15% (v/v) TRANSCUTOL, n=7) it was 1.83±0.02×10^−3 cm/min. Also, the “increase of mean steady state Kp compared to control PBS” value with porcine nasal mucosa (15% (v/v) TRANSCUTOL versus control PBS) is listed as roughly 37%.

As for `NCCCC(O)(P(=O)(O)O)P(=O)(O)O` [alendronate], in the series on healthy female rabbits (female, 10 days), the NOEL worked out at 0.013 mg/3 kg rabbit dose and the “NOEL, equivalent human dose” value is listed as 0.3 mg. Besides, in the series with healthy female rabbits, the “finding on cervix or uterus” value is recorded as “No erythema, inflammation or erosion”; the “one-time human dose extrapolated to be safe” value is on record as 10 mg; the systemic side effects entry was “no systemic side effects”. Moreover, the “systemic level after oral administration compared to i.v. administration” value in series [1] is reported as “below 1%”.

The record behind these values is patent US7939098B2, “Compositions and method for transmucosal drug delivery and cryoprotection” (Femina Pharma Incorporated, priority 2002, dated 2011).
